The numbers were not newly measured in patent US20240299293A1 (priority 2020, published 2024), which cites them from elsewhere.

The subject of the data set is human coronaviruses, including CoV-229E and SARS-COV, and animal coronaviruses. The note with it: for elimination of coronaviruses: hexachlorophene, 2% glutaraldehyde, 1% povidone-iodine, benzalkonium chloride, chlorhexidine.

Turning to `Oc1c(Cl)cc(Cl)c(Cl)c1Cc1c(O)c(Cl)cc(Cl)c1Cl` [hexachlorophene], the elimination of coronaviruses entry was “satisfactory elimination rates”.

With `O=CCCCC=O` [glutaraldehyde], the elimination of coronaviruses result is reported as “satisfactory elimination rates”.

With `OCl` [sodium hypochlorite], the susceptibility of coronaviruses entry (6% sodium hypochlorite solutions) is given as “variable”.

As to `[H]/N=C(\N/C(=N/[H])NCCCCCCNC(=N)NC(=N)Nc1ccc(Cl)cc1)Nc1ccc(Cl)cc1` [chlorhexidine], the elimination of coronaviruses result was “only if 70% ethanol is present in the solution”.

Regarding benzalkonium chloride, the elimination of coronaviruses result is given as “only if 70% ethanol is present in the solution”.

Take povidone-iodine: the elimination of coronaviruses result is reported as “satisfactory elimination rates”.

`CCO` [ethanol]: the reduction of viability result (70% ethanol, viruses in suspension and dried on surfaces, within seconds) is listed as “greater than 3 log”.
